The values that follow come from PubChem BioAssay (NCI).

Structures are written as SMILES.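 In this assay, cells in 96-well plates receive the compound at five concentrations for 48 hours. Endpoints are linearly interpolated between the surrounding concentrations. Abbreviation: GI50, concentration required for 50% inhibition of growth. Definition used: TGI = concentration required for complete inhibition of growth.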

Holding throughout (assay): NCI-60 cell line screen, 48 h
Experiment [1] deals with ACHN renal.
In experiment [2] the test system is K-562 leukemia.
Experiment [3] has as its system KM12 colon.
Experiment [4] concerns LOX IMVI melanoma.
The subject of experiment [5] is OVCAR-8 ovarian.
Experiment [6] deals with SF-295 CNS.
Experiment [7] concerns SF-539 CNS.
The subject of experiment [8] is SNB-75 CNS.
The test system of experiment [9] is UACC-257 melanoma.
Experiment [10] relates to UO-31 renal.

In the case of `COc1cc2c(cc1C)NC(=O)/C2=C\c1c[nH]c2ccccc12`, the GI50 is 11.5 µM in experiment [1]; 8.07 µM in experiment [2]; 0.417 µM in experiment [3]; 11.4 µM in experiment [4]; 20.3 µM in [5]; 6.28 µM in [6]. The GI50 was 14 µM in experiment [7], 4.12 µM in experiment [8], 21.9 µM in [9] and 10.4 µM in experiment [10]. In addition, the TGI in experiment [1] is 27.3 µM; in [2], 51.5 µM; in experiment [3] it was 21.1 µM; in experiment [4], 29.3 µM; in experiment [5], 67.2 µM; in experiment [6], 38 µM. Also, the TGI stood at 31.9 µM in experiment [7], 22.9 µM in [8], 43.8 µM in experiment [9] and 62.9 µM in experiment [10].

On to `COC(=O)C1C=CCON2CCc3c(n(S(=O)(=O)c4ccccc4)c4ccccc34)C12` (stereo not given), for which the TGI in experiment [1] was above 100 µM; in experiment [2], above 60.9 µM; in experiment [3], above 55.6 µM; in experiment [4], above 60.9 µM; in experiment [5], above 100 µM; in [6], above 100 µM. The TGI in experiment [7] is above 16.2 µM; in [8], above 100 µM; in experiment [9], above 90.3 µM; in [10], above 100 µM.

On to `COc1cccc(NC(=O)C(=O)C2C=CCS2(=O)=O)c1` (stereo not given), for which the TGI in experiment [1], in experiment [2], in [3], in [4], in experiment [5] and in [6] was above 100 µM in each case. Also, the TGI in experiment [7], in [8], in [9] and in [10] was above 100 µM in each case.

Regarding `Nc1ncnc2c1ccn2[C@@H]1O[C@H]([C@H](O)c2ccc(Cl)c(F)c2)[C@@H](O)[C@H]1O`, the GI50 in experiment [1], in experiment [2], in experiment [3], in [4], in experiment [5] and in [6] was above 100 µM in each case. The GI50 in experiment [7] is above 100 µM; in [8], above 100 µM; in experiment [9], above 100 µM; in experiment [10], 45.3 µM. Moreover, the TGI in experiment [1], in experiment [2], in experiment [3], in experiment [4], in [5] and in [6] was above 100 µM throughout. Besides, the TGI in [7], in experiment [8], in [9] and in [10] was above 100 µM in each case.

Take `CC1CC[P+](c2ccccc2)(c2ccccc2)CC1`: the TGI in experiment [1], in experiment [2], in experiment [3], in experiment [4], in experiment [5] and in experiment [6] was above 100 µM each time. The TGI in [7], in experiment [8], in experiment [9] and in experiment [10] was above 100 µM in each case.

Consider `CCn1ccc(NS(=O)(=O)c2ccc(N)cc2)nc1=O`, for which the GI50 in [1], in experiment [2], in [3], in experiment [4], in [5] and in experiment [6] was above 100 µM in each case. Besides, the GI50 in [7], in experiment [8], in [9] and in experiment [10] was above 100 µM each time. For the same compound, the TGI in experiment [1], in [2], in [3], in [4], in experiment [5] and in experiment [6] was above 100 µM throughout. The TGI in experiment [7], in experiment [8], in experiment [9] and in experiment [10] was above 100 µM each time.

`C[C@@H](Oc1cc(-n2cnc3ccc(OC[C@@H](O)CO)cc32)sc1C(N)=O)c1ccccc1Cl`: the GI50 was 6.11 µM in experiment [1]; 0.0804 µM in [2]; 0.0641 µM in experiment [3]; 0.0931 µM in [4]; 0.109 µM in experiment [5]; 0.318 µM in [6]. Also, the GI50 in [7] is 0.133 µM; in experiment [8], 0.29 µM; in experiment [9], 0.291 µM; in experiment [10], 8.39 µM. The TGI in experiment [1], in experiment [2], in [3], in [4], in [5] and in [6] was above 25 µM each time. Also, the TGI in experiment [7] is above 25 µM; in experiment [8], 4.41 µM; in experiment [9], above 25 µM; in experiment [10] it was above 25 µM.

Consider `O=C1C=CC2(C=C1)C[C@H](NC(=O)OCc1ccccc1)C(=O)O2`, for which the TGI in experiment [1] was 29.5 µM; in experiment [2] it was above 32.5 µM; in experiment [3] it was 35.7 µM; in experiment [4], 31.8 µM; in [5] it was 31.4 µM; in [6], 49.5 µM. Besides, the TGI in [7] turned out to be 44.5 µM; in experiment [8] it was 61.4 µM; in experiment [9], 33.2 µM; in [10] it was 39.9 µM.

As for `CCc1cccc(C)c1NC(=S)NC(=O)c1ccccc1C(=O)NC(=S)Nc1c(C)cccc1CC`, the TGI in experiment [1], in experiment [2], in [3], in experiment [4], in [5] and in [6] was above 100 µM throughout. For the same compound, the TGI in [7], in experiment [8], in experiment [9] and in [10] was above 100 µM in each case.

As to `C[CH2][Sn]([CH2]C)([O]C(=O)c1ccc(OC)c(OC)c1OC)[O]C(=O)c1ccc(OC)c(OC)c1OC`, the GI50 in experiment [1] was 51.4 µM; in experiment [2], 21.7 µM; in experiment [3] it was above 100 µM; in [4], 27.2 µM; in experiment [5], above 100 µM; in experiment [6], above 100 µM. Moreover, the GI50 is 44.3 µM in experiment [7], 19.1 µM in experiment [8], above 78.9 µM in experiment [9] and above 65.7 µM in [10]. The TGI is above 78.9 µM in [1]; above 74.6 µM in [2]; above 100 µM in experiment [3]; above 69.7 µM in experiment [4]; above 100 µM in experiment [5]; above 100 µM in experiment [6]. Besides, the TGI in experiment [7] was above 71.8 µM; in [8] it was 62.8 µM; in experiment [9], above 100 µM; in [10], above 96.4 µM.
